Laboratory results: ChEMBL document CHEMBL1201862, “PubChem BioAssay data set” (2004)
Active and inactive are the calls of the source.

Assays:
Assay type in all cases: functional
LIM domain kinase 1 = LIM domain kinase 1 (Homo sapiens, UniProt P53667); assay: Navigating the Kinome. Panel member name: LIMK1
[1] = biological target: Tyrosine-protein kinase Fyn (Homo sapiens, UniProt P06241)
[2] = biological target: Mitogen-activated protein kinase 8 (Homo sapiens, UniProt P45983);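 also: value comes from one member of a kinome-wide kinase profiling panel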
Mitogen-activated protein kinase 8, sequence (P45983 whole entry): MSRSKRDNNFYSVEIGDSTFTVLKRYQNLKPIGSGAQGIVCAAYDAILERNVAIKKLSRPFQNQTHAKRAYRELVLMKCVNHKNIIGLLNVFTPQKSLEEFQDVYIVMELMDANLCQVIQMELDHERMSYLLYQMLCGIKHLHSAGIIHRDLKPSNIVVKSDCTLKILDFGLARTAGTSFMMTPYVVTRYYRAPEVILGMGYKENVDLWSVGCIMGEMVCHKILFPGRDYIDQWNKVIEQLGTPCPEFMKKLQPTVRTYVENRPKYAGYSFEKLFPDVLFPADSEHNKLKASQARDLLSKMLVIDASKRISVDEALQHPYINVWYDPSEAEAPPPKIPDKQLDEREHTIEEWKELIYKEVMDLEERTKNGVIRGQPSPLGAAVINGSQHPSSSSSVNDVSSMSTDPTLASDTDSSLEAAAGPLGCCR

[3] = biological target: Leucine-rich repeat serine/threonine-protein kinase 2 (Homo sapiens, UniProt Q5S007);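 also: value from a broad kinome-wide panel profiling study in which LRRK2 was one of the kinases tested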
Aurora kinase B = Aurora kinase B (Homo sapiens, UniProt Q96GD4)
[4] = biological target: Tyrosine-protein kinase JAK3 (Homo sapiens, UniProt P52333)
Tyrosine-protein kinase JAK3, sequence (P52333 whole entry): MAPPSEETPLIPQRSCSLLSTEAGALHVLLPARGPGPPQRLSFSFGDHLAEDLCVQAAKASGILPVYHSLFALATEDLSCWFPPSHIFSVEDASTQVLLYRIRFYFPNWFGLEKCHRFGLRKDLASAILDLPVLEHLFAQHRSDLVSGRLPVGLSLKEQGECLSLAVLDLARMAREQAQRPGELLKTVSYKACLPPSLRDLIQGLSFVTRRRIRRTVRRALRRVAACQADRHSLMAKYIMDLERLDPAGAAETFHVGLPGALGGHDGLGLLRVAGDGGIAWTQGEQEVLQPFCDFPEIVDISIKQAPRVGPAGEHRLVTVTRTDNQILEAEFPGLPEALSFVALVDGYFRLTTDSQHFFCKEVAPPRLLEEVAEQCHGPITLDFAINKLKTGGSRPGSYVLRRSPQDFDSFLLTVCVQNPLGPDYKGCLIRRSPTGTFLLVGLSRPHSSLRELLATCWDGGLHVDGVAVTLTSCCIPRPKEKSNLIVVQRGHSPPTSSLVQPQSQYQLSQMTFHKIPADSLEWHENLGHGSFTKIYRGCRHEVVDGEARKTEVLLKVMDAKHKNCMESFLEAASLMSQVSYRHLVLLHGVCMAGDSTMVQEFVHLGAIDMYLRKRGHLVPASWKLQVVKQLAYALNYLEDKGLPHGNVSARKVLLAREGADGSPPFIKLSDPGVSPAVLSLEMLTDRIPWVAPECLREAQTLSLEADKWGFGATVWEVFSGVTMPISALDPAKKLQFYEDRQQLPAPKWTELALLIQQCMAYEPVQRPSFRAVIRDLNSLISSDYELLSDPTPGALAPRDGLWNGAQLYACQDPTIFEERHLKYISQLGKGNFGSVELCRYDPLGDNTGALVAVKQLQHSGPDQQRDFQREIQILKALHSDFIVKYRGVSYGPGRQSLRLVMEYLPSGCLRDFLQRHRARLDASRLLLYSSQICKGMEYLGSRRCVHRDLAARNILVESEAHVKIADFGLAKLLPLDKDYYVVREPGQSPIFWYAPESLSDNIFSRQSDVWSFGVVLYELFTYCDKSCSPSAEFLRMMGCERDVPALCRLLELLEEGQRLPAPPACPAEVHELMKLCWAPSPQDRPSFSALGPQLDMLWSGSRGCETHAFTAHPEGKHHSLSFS

Activated CDC42 kinase 1 = Activated CDC42 kinase 1 (Homo sapiens, UniProt Q07912); assay: Navigating the Kinome. Panel member name: ACK1
Activated CDC42 kinase 1, sequence (Q07912 whole entry): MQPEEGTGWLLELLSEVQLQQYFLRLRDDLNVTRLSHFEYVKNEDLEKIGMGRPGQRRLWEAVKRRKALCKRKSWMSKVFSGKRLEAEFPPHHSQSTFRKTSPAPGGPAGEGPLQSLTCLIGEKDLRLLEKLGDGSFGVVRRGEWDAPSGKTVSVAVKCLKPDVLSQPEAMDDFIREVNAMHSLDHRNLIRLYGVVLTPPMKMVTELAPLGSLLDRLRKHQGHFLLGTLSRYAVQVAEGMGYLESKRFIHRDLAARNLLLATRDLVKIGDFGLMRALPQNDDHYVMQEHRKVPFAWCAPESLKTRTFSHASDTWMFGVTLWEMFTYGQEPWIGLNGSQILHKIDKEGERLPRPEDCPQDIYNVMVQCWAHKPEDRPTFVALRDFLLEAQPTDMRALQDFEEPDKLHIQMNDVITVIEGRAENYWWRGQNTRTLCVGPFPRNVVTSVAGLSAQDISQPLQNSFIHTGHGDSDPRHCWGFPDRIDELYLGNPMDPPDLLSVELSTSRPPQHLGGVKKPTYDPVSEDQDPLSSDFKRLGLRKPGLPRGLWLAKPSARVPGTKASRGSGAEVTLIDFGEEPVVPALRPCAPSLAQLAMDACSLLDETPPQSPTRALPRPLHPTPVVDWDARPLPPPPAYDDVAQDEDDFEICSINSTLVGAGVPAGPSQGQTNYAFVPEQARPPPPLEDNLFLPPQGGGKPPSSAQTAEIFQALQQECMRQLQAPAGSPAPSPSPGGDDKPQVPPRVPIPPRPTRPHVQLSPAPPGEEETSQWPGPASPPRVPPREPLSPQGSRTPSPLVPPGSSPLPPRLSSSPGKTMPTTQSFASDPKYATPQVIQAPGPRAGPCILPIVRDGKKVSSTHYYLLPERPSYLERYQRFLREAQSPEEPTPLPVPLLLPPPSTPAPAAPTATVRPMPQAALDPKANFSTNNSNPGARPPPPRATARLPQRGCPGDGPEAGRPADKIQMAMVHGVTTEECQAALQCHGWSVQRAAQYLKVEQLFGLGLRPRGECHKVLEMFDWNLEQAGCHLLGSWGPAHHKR

[5] = biological target: High affinity nerve growth factor receptor (Homo sapiens, UniProt P04629);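 also: NTRK1 tested as one member of a kinome-wide profiling panel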
[6] = biological target: Receptor-type tyrosine-protein kinase FLT3 (Homo sapiens, UniProt P36888);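 also: FLT3 was tested as one member of a kinome-wide kinase panel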
Receptor-type tyrosine-protein kinase FLT3, sequence (P36888 whole entry): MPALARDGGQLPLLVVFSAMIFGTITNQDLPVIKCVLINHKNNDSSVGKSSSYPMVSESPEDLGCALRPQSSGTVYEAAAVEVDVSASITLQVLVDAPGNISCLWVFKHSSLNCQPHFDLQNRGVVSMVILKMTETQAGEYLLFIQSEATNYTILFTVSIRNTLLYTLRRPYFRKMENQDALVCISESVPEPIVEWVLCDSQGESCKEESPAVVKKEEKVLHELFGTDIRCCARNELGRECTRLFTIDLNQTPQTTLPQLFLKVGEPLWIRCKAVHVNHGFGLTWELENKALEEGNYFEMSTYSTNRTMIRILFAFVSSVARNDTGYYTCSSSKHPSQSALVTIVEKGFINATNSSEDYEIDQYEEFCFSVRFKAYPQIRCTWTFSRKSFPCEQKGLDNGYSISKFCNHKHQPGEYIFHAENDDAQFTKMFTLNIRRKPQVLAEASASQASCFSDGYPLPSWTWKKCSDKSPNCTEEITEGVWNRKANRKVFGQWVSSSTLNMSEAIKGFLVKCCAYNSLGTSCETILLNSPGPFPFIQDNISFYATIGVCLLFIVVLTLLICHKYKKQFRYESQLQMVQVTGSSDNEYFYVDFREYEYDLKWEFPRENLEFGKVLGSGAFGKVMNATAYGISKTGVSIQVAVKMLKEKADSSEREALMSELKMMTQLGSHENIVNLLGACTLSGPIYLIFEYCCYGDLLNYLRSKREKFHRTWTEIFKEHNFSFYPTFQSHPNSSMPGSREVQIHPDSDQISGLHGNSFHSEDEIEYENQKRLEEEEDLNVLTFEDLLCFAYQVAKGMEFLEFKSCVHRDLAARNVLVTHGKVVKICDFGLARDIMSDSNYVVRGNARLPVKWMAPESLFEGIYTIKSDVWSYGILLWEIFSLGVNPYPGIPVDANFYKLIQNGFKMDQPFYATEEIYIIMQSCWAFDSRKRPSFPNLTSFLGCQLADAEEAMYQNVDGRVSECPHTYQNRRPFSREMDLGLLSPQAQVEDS

[7] = biological target: cAMP-dependent protein kinase catalytic subunit alpha (Homo sapiens, UniProt P17612)
[8] = biological target: Dual specificity protein kinase CLK2 (Homo sapiens, UniProt P49760)
[9] = biological target: 5'-AMP-activated protein kinase catalytic subunit alpha-1 (Homo sapiens, UniProt Q13131)
[10] = biological target: T1, Serine/threonine-protein kinase D3 (Homo sapiens, UniProt O94806);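 also: determined within a kinase panel screen, with PRKCN as the panel member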
T1 sequence (O94806 whole entry): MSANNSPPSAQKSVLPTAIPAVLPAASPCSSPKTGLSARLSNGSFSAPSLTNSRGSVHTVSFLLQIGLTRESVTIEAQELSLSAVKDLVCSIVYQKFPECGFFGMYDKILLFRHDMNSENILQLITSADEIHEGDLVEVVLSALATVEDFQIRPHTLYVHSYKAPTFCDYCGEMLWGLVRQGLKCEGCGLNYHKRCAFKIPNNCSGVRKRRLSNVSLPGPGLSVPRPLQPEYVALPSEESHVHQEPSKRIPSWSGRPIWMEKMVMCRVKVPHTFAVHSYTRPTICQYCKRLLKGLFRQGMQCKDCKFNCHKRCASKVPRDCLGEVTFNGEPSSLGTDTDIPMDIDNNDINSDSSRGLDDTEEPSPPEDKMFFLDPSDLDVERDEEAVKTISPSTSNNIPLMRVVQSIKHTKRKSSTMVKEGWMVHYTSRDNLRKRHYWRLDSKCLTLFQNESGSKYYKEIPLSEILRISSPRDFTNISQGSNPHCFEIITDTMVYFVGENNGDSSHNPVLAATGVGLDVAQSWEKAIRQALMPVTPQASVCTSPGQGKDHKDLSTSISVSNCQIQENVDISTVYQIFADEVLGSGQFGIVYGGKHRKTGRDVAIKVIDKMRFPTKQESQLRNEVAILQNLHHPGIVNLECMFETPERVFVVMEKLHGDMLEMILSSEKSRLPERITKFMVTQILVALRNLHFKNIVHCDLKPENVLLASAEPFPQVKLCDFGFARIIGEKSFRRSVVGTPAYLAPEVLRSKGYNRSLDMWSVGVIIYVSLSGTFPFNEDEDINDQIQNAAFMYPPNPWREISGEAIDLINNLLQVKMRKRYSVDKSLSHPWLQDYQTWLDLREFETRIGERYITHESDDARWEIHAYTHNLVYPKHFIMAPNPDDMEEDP

[11] = biological target: Glycogen synthase kinase-3 alpha (Homo sapiens, UniProt P49840);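 also: GSK3A result taken from a broad kinome-wide kinase panel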
Glycogen synthase kinase-3 alpha, sequence (P49840 whole entry): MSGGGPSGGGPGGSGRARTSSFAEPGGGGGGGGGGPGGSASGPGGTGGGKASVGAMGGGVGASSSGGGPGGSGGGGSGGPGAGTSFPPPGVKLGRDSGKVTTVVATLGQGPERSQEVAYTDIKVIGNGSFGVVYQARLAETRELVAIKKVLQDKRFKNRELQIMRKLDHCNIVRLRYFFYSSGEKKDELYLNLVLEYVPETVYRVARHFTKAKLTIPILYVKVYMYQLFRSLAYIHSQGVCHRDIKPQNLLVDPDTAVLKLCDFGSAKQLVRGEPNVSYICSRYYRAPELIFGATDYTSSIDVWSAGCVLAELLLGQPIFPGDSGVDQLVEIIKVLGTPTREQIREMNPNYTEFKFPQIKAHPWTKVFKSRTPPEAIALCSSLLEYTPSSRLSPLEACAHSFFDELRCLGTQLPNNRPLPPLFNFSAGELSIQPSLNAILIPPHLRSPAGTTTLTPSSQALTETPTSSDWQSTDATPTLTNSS

[12] = biological target: Mitogen-activated protein kinase 14 (Homo sapiens, UniProt Q16539);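 also: part of a kinome-wide panel, MAPK14 entry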
Mitogen-activated protein kinase 14, sequence (Q16539 whole entry): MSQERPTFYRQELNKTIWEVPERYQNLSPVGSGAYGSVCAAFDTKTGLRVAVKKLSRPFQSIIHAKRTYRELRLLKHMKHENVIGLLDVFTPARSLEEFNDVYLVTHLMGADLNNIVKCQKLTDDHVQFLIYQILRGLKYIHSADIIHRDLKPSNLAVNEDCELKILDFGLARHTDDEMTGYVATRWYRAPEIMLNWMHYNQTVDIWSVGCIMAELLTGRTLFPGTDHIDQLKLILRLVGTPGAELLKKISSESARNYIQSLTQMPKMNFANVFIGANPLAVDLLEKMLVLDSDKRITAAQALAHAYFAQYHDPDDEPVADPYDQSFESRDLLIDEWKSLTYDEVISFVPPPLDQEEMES

[13] = biological target: Serine/threonine-protein kinase Chk1 (Homo sapiens, UniProt O14757);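 also: measured as one member of a kinome-wide kinase profiling panel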
[14] = biological target: Tyrosine-protein kinase ABL1 (Homo sapiens, UniProt P00519)
Activin receptor type-1 = Activin receptor type-1 (Homo sapiens, UniProt Q04771); assay: Navigating the Kinome. Panel member name: ACVR1
[15] = biological target: Ribosomal protein S6 kinase alpha-3 (Homo sapiens, UniProt P51812);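 also: measured within a kinome-wide profiling panel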
Focal adhesion kinase 1 = Focal adhesion kinase 1 (Homo sapiens, UniProt Q05397);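 also: measured as one member of a kinome panel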
[16] = biological target: Hepatocyte growth factor receptor (Homo sapiens, UniProt P08581);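 also: kinase panel profiling across the kinome, with MET as the panel member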
[17] = biological target: Tyrosine-protein kinase Lck (Homo sapiens, UniProt P06239);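 also: lck was assayed as one member of a kinase panel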

Tyrosine-protein kinase Fyn, sequence (P06241 whole entry): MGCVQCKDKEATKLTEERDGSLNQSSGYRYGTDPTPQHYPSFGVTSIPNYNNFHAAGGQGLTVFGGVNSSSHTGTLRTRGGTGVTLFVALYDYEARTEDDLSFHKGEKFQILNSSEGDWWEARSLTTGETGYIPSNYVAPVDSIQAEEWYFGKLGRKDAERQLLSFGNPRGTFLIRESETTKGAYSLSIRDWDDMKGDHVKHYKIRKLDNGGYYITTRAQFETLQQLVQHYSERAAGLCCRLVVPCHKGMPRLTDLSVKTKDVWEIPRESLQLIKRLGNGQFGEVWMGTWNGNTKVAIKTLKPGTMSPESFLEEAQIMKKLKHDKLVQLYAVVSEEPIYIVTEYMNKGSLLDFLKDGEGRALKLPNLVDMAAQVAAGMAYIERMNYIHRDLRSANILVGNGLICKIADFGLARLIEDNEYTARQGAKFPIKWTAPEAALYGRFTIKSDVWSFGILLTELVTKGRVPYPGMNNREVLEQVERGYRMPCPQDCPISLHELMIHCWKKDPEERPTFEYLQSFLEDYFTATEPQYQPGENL

Row | Ki [1] | Ki [2] | Ki [3] | Ki [4] | Ki (Activated CDC42 kinase 1) | Ki [5] | Ki [6] | Ki [7] | Ki [8] | Ki [9] | Ki [10] | Ki [11] | Ki [12] | SMILES | further results
1 | > 6.31 µM (inactive) | > 5.01 µM (inactive) | > 2.51 µM (inactive) | > 5.01 µM (inactive) | > 3.98 µM (inactive) | > 3.16 µM (inactive) | > 3.16 µM (inactive) | 0.126 µM (active) | > 3.98 µM (inactive) | > 3.16 µM (inactive) | > 3.98 µM (inactive) | 2.51 µM (active) | > 3.98 µM (inactive) | COc1cccc(C(C)NC(=O)c2cnc(-c3ccncc3)nc2)c1 (stereo not given) | Ki (LIM domain kinase 1): > 3.16 µM (inactive); Ki (Aurora kinase B): > 3.98 µM (inactive); Ki [13]: > 3.16 µM (inactive); Ki [14]: > 3.98 µM (inactive); Ki (Activin receptor type-1): > 3.98 µM (inactive)
2 | > 6.31 µM (inactive) | > 5.01 µM (inactive) | > 2.51 µM (inactive) | > 5.01 µM (inactive) | > 3.98 µM (inactive) | > 3.16 µM (inactive) | > 3.16 µM (inactive) | 1 µM (active) | > 3.98 µM (inactive) | > 3.16 µM (inactive) | > 3.98 µM (inactive) | 3.16 µM (active) | > 3.98 µM (inactive) | CCCOc1cccc(C(C)NC(=O)c2ccc(-c3ccncc3F)cc2)c1 (stereo not given) | Ki [15]: > 3.98 µM (inactive); Ki (Focal adhesion kinase 1): > 6.31 µM (inactive); Ki [16]: > 2.51 µM (inactive); Ki [17]: > 6.31 µM (inactive)
